Patent US7919329B2, “Method for screening for agents that affect food intake” (Oregon Health & Science University, priority 2001, dated 2011)
Read-outs that look alike come from different tables or passages of the source. No end group written: not given here.

Columns and labels:
[1] = system: POMC neurons; assay: Whole cell recordings of membrane potential of EGFP-labeled POMC neurons in arcuate (ARC) slices; assay type: cell-based, mouse
[2] = system: POMC neurons; assay: Action potential frequency / firing rate of POMC neurons (whole cell and loose cell-attached); assay type: cell-based, mouse; details: for POMC neuron firing rate (frequency of action potentials): fenfluramine 20 μM, loose-cell-attached, n=3
[3] = system: POMC neurons; assay: GABAergic IPSCs recorded in POMC neurons of ARC slices; assay type: cell-based, mouse
[4] = system: hypothalamic explants; details: hypothalamic explants (Batterham et al.); cited from earlier work
[5] = system: POMC neurons; assay: I-V relationships of drug-induced currents in POMC neurons; assay type: cell-based, mouse; details: leptin 100 nM, slow voltage ramps
[6] = system: non-POMC neurons in the arcuate nucleus; assay: Membrane potential of non-fluorescent (non-POMC) neurons in the arcuate nucleus; assay type: cell-based, mouse; details: 13 cells tested; also hyperpolarized 5 and depolarized 3

Which “resting membrane potential of POMC neurons (depolarization)” value (“resting membrane potential” below) [1] does the source give for CCNC(C)Cc1cccc(C(F)(F)F)c1 (stereo not drawn) [Fenfluramine, fenfluramine] here?
The value was “depolarized POMC neurons”.

And the “POMC neuron firing rate (frequency of action potentials)” value [2]?
The value was “two fold increase”.

What about the “POMC neuron firing rate (frequency of action potentials)” value ([2]; listed as d-FEN) of the same compound?
Its value is “doubling”.

Which “resting membrane potential” value [1] does the source give for Clc1cncc(N2CCNCC2)n1 [MK 212, 6-Chloro-2-(1-piperazinyl)pyrazine] here?
Its value is “depolarized POMC neurons”.

Which “large amplitude IPSCs” value [3] does the source give for NC1=N[C@H](O)[C@H]2[C@H]3O[C@]4(O)O[C@@H]([C@@H](O)[C@@]2(N1)[C@@H]4O)[C@]3(O)CO [TTX, tetrodotoxin] here?
Its value is “abolished large IPSCs”.

For Clc1cccc(N2CCNCC2)c1 [mCPP, 1-(3-Chlorophenyl)piperazine], which “resting membrane potential” value [1] is on record?
Its value is “depolarized POMC neurons”.

With NCCc1c[nH]c2ccc(O)cc12 [serotonin] as the compound, how does the “resting membrane potential” value ([1]; serotonin receptor agonists bath-applied four minutes, whole cell, n=4-8 per dose) read?
Its value is “increased the resting membrane potential (depolarized)”.

Which results are given for D-Trp^8-γMSH?
increase of frequency of GABAergic IPSCs ([3]; D-Trp8-γMSH 7 nM, 3 of 4 POMC neurons): 280±90%; frequency of action potentials ([2]; D-Trp8-γMSH 7 nM): decreased the frequency of action potentials

With “N-acetyl (Leu^28, Leu^31) NPY (24-36) (Ac-LRHYLNLLTRQRY; ends and bridges not checked) [Y2A]” as the compound, how does the “depolarization of POMC neurons” value ([1]; whole cell, PYY3-36 (10 nM, FIG. 6a) n=22, 19 of 22 depolarized, Y2A n=9) read?
The value was 8.7±1.8 mV.

What about the “reduction of frequency of IPSCs onto POMC neurons” value ([3]; PYY3-36 (50 nM, FIG. 6c) n=13, Y2A n=8) of the same compound?
The value was 44.4±9.3%.

What about the A-MSH release [4] of the same compound?
Its A-MSH release is “concomitant increase in A-MSH release”.

And the NPY release [4]?
The NPY release was “significantly decreased NPY release”.

Which “hyperpolarization of POMC neurons, mean” value ([1]; ghrelin 50 nM, three minutes, whole cell) does the source give for “ghrelin: agent known to increase feeding, caloric intake, and appetite, and decrease energy expenditure (GSSFLSPEHQRVQQRKESKKPPAKLQPR; ends and bridges not checked; UniProt Q9UBU3 24-51, looked up)” here?
The value was 1.47±0.7 mV.

What about the “frequency of IPSCs in POMC neurons” value ([3]; ghrelin 50 nM) of the same compound?
The value was “increase in the frequency of IPSCs”.

What about the “decrease of action potential firing rate of POMC neurons” value ([2]; ghrelin 50 nM, loose cell attached mode) of the same compound?
Its value is 50%.

Which results are given for leptin: adipostatic hormone?
time to depolarization after addition ([1]; leptin 0.1-100 nM): 2 to 10 min; depolarization of POMC cells ([1]; leptin 0.1-100 nM, 72 of 77 POMC cells): 3-30 mV; inhibition of IPSCs in the presence of tetrodotoxin (TTX) [3]: still inhibited IPSCs; decrease of frequency of GABAergic IPSCs ([3]; 100 nM, leptin in 5 out of 15 cells, NPY in all 12 POMC cells tested): 25%; reversal of small inward current [5]: approximately −20 mV; effect on adjacent non-fluorescent ARC cells [6]: no effect on 5 of 13 adjacent non-fluorescent cells tested

For met-enkephalin (YGGFM), which “spontaneous action potential generation” value [2] is on record?
Its value is “prevented spontaneous action potential generation”.

With neuropeptide Y [NPY] as the compound, how does the “hyperpolarization of POMC neurons (average)” value ([1]; NPY, n=3, all POMC neurons tested) read?
The value was 9±6 mV.

What about the “inhibition of IPSCs in the presence of tetrodotoxin (TTX)” value [3] of the same compound?
The value was “still inhibited IPSCs”.

And the “time to decrease of IPSC frequency” value ([3]; NPY 100 nM)?
The value was at most 3 min.

For picrotoxin, which IPSCs [3] is on record?
The IPSCs was “blocked all IPSCs”.
